According to the Kinase Knowledgebase extract (Sharma et al. 2016):

Key:
PIK3CD (Human) = PIK3CD (Human) (UniProt O00329); assay: Assessment of PIK3CD Kinase Activity
PIK3CG (human) = PIK3CG (human) (UniProt P48736); assay: Assessment of PIK3CG Kinase Activity
PIK3CB (Human) = PIK3CB (Human) (UniProt P42338); assay: Assessment of PIK3CB Kinase Activity
PIK3CA (human) = PIK3CA (human) (UniProt P42336); assay: Assessment of PIK3CA Kinase Activity
PIK3CA (human), sequence (P42336 whole entry, looked up): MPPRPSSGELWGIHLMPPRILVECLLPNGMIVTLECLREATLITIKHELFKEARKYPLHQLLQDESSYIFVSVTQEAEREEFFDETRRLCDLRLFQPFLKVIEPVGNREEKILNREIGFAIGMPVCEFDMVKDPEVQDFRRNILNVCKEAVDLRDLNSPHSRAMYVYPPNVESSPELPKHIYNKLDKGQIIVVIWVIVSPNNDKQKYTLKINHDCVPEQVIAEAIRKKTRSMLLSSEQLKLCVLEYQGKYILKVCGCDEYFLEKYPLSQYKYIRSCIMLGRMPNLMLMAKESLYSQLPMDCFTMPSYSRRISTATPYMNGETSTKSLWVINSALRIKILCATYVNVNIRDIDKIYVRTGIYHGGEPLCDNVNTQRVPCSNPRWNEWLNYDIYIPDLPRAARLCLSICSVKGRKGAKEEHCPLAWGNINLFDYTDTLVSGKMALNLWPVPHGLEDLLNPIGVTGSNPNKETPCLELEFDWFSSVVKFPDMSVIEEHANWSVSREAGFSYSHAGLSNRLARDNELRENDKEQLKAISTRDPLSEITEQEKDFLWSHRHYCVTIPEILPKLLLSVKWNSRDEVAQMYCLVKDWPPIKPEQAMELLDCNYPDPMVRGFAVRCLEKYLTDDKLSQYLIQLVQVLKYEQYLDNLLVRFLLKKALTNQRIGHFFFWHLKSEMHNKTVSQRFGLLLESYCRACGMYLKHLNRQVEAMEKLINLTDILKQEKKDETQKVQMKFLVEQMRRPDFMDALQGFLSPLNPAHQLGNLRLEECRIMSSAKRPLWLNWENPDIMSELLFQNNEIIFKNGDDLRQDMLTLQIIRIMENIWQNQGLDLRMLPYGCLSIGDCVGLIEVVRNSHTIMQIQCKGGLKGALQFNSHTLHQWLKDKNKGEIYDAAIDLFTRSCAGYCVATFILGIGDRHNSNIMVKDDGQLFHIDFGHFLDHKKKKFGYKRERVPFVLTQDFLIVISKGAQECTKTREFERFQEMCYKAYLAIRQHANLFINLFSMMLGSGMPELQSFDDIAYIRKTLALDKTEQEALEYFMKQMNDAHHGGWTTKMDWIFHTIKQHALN

PIK3CD (Human), sequence (O00329 whole entry, looked up): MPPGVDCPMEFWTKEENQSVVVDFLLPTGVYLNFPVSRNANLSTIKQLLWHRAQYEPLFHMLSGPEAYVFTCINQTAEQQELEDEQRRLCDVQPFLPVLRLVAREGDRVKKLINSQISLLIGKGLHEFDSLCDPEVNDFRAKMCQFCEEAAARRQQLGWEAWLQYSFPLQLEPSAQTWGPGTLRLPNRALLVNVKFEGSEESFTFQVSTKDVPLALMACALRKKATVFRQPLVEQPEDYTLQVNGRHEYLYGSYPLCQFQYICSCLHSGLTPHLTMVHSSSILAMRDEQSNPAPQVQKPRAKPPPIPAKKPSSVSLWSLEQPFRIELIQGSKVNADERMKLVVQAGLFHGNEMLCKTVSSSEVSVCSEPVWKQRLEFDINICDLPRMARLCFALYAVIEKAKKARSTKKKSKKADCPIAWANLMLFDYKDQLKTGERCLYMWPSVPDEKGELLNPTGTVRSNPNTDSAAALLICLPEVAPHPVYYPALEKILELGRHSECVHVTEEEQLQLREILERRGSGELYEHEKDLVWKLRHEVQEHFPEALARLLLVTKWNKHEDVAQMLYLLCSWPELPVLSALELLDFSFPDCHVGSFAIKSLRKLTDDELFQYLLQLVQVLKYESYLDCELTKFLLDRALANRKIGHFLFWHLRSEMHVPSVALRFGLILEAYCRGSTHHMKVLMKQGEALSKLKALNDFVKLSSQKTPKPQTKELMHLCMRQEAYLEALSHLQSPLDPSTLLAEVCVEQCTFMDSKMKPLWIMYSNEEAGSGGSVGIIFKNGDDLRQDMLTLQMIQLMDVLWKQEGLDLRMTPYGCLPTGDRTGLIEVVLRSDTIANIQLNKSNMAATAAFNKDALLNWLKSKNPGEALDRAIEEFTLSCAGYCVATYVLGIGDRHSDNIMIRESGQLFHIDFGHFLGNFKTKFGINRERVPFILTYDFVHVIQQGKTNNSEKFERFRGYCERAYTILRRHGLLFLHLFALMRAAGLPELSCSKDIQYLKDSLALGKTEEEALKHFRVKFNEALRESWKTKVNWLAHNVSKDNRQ
PIK3CG (human), sequence (P48736 whole entry, looked up): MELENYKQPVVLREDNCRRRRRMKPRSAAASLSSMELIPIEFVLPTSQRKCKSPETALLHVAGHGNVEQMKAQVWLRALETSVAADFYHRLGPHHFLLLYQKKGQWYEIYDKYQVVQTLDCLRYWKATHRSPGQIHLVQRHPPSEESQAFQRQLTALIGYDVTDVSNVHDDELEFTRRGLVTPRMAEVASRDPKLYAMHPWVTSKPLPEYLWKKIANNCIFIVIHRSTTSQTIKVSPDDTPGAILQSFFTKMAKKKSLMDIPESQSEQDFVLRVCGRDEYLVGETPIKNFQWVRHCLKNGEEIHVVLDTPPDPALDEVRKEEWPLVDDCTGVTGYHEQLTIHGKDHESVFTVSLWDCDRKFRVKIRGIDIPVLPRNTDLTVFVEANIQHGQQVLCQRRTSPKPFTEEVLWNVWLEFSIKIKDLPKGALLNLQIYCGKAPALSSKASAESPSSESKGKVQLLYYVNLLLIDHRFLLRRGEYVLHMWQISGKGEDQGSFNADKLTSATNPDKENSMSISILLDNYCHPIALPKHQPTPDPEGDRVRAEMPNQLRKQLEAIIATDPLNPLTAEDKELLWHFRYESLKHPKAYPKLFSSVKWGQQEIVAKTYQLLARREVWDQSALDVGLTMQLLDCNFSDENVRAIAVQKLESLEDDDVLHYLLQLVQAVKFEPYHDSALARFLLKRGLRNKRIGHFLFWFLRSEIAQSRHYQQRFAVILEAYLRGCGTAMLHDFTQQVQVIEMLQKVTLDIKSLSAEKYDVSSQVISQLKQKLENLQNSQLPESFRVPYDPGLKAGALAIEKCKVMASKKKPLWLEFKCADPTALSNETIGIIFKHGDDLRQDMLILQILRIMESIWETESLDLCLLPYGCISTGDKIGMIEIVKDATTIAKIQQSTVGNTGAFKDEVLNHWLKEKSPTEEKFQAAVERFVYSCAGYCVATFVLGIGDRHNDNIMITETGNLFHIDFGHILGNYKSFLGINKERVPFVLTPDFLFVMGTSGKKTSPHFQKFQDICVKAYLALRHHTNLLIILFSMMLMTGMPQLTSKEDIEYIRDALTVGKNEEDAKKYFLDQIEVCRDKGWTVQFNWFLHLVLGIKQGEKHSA
PIK3CB (Human), sequence (P42338 whole entry, looked up): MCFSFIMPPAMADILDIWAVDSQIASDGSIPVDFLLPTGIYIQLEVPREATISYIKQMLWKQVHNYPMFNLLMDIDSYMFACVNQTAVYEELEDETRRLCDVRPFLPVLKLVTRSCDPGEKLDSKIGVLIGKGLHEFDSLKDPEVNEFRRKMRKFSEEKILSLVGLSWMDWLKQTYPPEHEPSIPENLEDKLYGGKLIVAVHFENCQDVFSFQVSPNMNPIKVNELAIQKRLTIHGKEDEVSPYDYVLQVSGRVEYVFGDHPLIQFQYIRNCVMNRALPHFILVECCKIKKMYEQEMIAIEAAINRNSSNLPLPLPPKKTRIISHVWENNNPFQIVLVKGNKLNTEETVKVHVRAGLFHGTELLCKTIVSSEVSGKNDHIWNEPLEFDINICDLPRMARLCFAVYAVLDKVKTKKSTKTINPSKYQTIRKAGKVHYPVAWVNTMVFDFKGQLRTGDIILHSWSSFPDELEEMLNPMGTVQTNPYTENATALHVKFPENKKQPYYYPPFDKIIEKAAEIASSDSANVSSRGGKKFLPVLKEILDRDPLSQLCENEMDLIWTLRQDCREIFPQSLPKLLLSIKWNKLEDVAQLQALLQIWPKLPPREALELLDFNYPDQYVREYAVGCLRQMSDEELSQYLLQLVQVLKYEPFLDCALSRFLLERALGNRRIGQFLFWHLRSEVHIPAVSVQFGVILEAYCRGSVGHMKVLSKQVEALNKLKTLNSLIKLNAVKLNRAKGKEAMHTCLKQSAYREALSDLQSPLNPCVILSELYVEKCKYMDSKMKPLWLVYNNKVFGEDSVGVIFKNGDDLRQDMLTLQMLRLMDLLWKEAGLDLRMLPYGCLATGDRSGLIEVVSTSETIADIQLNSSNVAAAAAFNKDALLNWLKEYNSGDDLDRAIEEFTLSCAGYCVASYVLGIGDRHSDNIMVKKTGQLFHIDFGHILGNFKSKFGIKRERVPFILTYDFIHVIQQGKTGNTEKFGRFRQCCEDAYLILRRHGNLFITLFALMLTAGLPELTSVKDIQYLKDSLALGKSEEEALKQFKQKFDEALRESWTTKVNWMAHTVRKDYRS

SMILES | IC50 (PIK3CD (Human)) [nM] | IC50 (PIK3CG (human)) [nM] | IC50 (PIK3CB (Human)) [nM] | IC50 (PIK3CA (human)) [nM]
C[C@H](Nc1nc(N)nc2nccnc12)c1cc2cccc(Cl)c2c(=O)n1-c1ccccc1 | 100 to 1000 | < 100 |  | > 10000
C[C@H](Nc1ncnc2ccnn12)C1=Cc2cccc(Cl)c2C(C(=O)N2CCOCC2)N1 (stereo partly specified) | 100 to 1000 |  |  | > 10000
C[C@H](Nc1ncnc2cccnc12)c1cc2cc(F)ccc2c(=O)n1-c1ccccc1 | 100 to 1000 |  | > 10000 | 
C[C@H](Nc1ccnn2ccnc12)c1cc2cccc(Cl)c2c(=O)n1CCN1CCCC1 |  | > 10000 |  | > 10000
C[C@H](Nc1ncnc2[nH]cc(C(N)=O)c12)c1cc2cccc(C(F)(F)F)c2c(=O)n1-c1ccccc1 | < 100 | < 100 | 100 to 1000 | 
C[C@H](Nc1nc(N)nc2cccnc12)c1cc2cccc(-c3cnn(C)c3)c2c(=O)n1-c1ccccc1 | < 100 | < 100 | > 10000 | 
C[C@H](Nc1ccnc2ccnn12)c1cc2cccc(-c3cnn(C)c3)c2c(=O)n1C1CC1 | < 100 |  |  | 
C[C@H](Nc1ncnc2cccnc12)c1cc2scc(Cl)c2c(=O)n1-c1ccccc1 | < 100 | < 100 | 100 to 1000 | 
C[C@H](Nc1ccnc2ccnn12)c1cc2cccc(-c3cnn(C)c3)c2c(=O)n1-c1cccc(F)c1 | < 100 | 100 to 1000 | > 10000 | 
C[C@H](Nc1nc(N)nc2cccnc12)c1cc2cccc(-c3cnn(C)c3)c2c(=O)n1-c1cccc(F)c1 | < 100 | < 100 | > 10000 | 
C[C@H](Nc1nc(N)ncc1C#N)c1cc2cccc(C(F)(F)F)c2c(=O)n1-c1ccccc1 | < 100 | < 100 | 100 to 1000 | 
C[C@H](Nc1ncnc2cccnc12)c1cc2cccc(-c3ccc(N)nc3)c2c(=O)n1-c1ccccc1 | < 100 | < 100 | > 10000 | 
C[C@H](Nc1ccnn2ccnc12)c1cc2cccc(-c3cnn(C)c3)c2c(=O)n1-c1ccccc1 | < 100 | < 100 |  | 
C[C@H](Nc1ccnc2ccnn12)c1cc2cccc(C(F)(F)F)c2c(=O)n1-c1ccccc1 | < 100 | < 100 | 100 to 1000 | 
C[C@H](Nc1nc(N)nc2cccnc12)c1cc2cccc(-c3ccnnc3)c2c(=O)n1-c1ccccc1 | < 100 | < 100 |  | 
C[C@H](Nc1ccnc2ccnn12)c1cc2cccc(Cl)c2c(=O)n1CCN1CCCC1 |  | > 10000 |  | > 10000

SMILES | IC50 (PIK3CD (Human)) [nM] | IC50 (PIK3CG (human)) [nM] | IC50 (PIK3CB (Human)) [nM] | IC50 (PIK3CA (human)) [nM]
C[C@H](Nc1ccnn2ccnc12)c1cc2scc(Cl)c2c(=O)n1-c1ccccc1 | < 100 | < 100 | 100 to 1000 | 
C[C@H](Nc1ccnc2cccnc12)c1cc2cccc(-c3cnn(C)c3)c2c(=O)n1-c1ccccc1 | < 100 | < 100 |  | 
C[C@H](Nc1ncnc2cccnc12)c1cc2ccc(F)cc2c(=O)n1-c1ccccc1 | < 100 | < 100 |  | 
C[C@H](Nc1ncnc2[nH]cc(F)c12)c1cc2cccc(C(F)(F)F)c2c(=O)n1-c1ccccc1 | < 100 | < 100 |  | 
C[C@H](Nc1ncnn2ccnc12)c1cc2cccc(C(F)(F)F)c2c(=O)n1-c1ccccc1 | < 100 | < 100 | 100 to 1000 | 
C[C@H](Nc1ccnn2ccnc12)c1cc2cccc(-c3cnn(C)c3)c2c(=O)n1C1CC1 | < 100 | 100 to 1000 |  | 
C[C@H](Nc1ccnc2ccnn12)c1cc2cccc(Cl)c2c(=O)n1C1CC1 | < 100 | 100 to 1000 | 100 to 1000 | 
C[C@H](Nc1nc(N)nc2cccnc12)c1cc2cccc(-c3ccnnc3)c2c(=O)n1-c1cccc(F)c1 | < 100 | < 100 | > 10000 | 
C[C@H](Nc1ncnc(N)c1C#N)c1cc2cccc(C(F)(F)F)c2c(=O)n1-c1cccc(F)c1 | < 100 | < 100 | 100 to 1000 | 
C[C@H](Nc1ncnc2cccnc12)c1cc2cccc(C(F)(F)F)c2c(=O)n1-c1ccccc1 | < 100 | < 100 | 100 to 1000 | 
C[C@H](Nc1ccnc2ccnn12)c1cc2scc(Cl)c2c(=O)n1-c1ccccc1 | < 100 | < 100 | 100 to 1000 | 
COc1ncc(-c2cccc3cc([C@H](C)Nc4ccnn5ccnc45)n(-c4ccccc4)c(=O)c23)cn1 | < 100 | 100 to 1000 | > 10000 | 
C[C@H](Nc1nc(N)nc2cccnc12)c1cc2cccc(-c3cncnc3)c2c(=O)n1-c1ccccc1 | < 100 | < 100 |  | 
C[C@H](Nc1ncnc2scnc12)c1cc2cccc(C(F)(F)F)c2c(=O)n1-c1cccc(F)c1 | < 100 | < 100 | 100 to 1000 | 
C[C@H](Nc1ncnc2cccnc12)c1cc2cccc(-c3cnn(C)c3)c2c(=O)n1-c1cccc(F)c1 | < 100 | < 100 | > 10000 | 

Now from value to compound:

IC50 (PIK3CD (Human)) [nM] | IC50 (PIK3CG (human)) [nM] | IC50 (PIK3CB (Human)) [nM] | IC50 (PIK3CA (human)) [nM] | SMILES
< 100 | < 100 | 100 to 1000 |  | C[C@H](Nc1ccnc2cccnc12)c1cc2cccc(Cl)c2c(=O)n1-c1ccccc1
< 100 | < 100 |  |  | C[C@H](Nc1ccnc2ccnn12)c1cc2cccc(-c3cnn(C)c3)c2c(=O)n1-c1ccccc1
< 100 | < 100 | > 10000 |  | Cc1nn(C)cc1-c1cccc2cc([C@H](C)Nc3ncnc4cccnc34)n(-c3ccccc3)c(=O)c12
< 100 | < 100 | 100 to 1000 |  | C[C@H](Nc1ccnn2ccnc12)c1cc2cccc(C(F)(F)F)c2c(=O)n1-c1ccccc1
< 100 | < 100 | > 10000 |  | C[C@H](Nc1nc(N)nc2cccnc12)c1nc2cccc(-c3ccnnc3)c2c(=O)n1-c1ccccc1
< 100 | < 100 | > 10000 |  | C[C@H](Nc1ccnn2ccnc12)c1cc2cccc(-c3cnn(C)c3)c2c(=O)n1-c1cccc(F)c1
< 100 | 100 to 1000 |  | > 10000 | Cc1ccnc2cc(C(C)Nc3ncnc4cccnc34)n(-c3ccccc3)c(=O)c12 (stereo unspecified)
< 100 | < 100 |  |  | CNc1nc(N[C@@H](C)c2cc3cccc(Cl)c3c(=O)n2-c2ccccc2)c2ncccc2n1
< 100 | 100 to 1000 | > 10000 |  | COc1ncc(-c2cccc3cc([C@H](C)Nc4ncnc5cccnc45)n(-c4cccc(F)c4)c(=O)c23)cn1
< 100 | < 100 | 100 to 1000 |  | C[C@H](Nc1nc(N)nc2[nH]cnc12)c1cc2cccc(C(F)(F)F)c2c(=O)n1-c1cccc(F)c1
< 100 | 100 to 1000 |  | > 10000 | C[C@H](Nc1ncnc2ccnn12)c1cc2cccc(Cl)c2c(=O)n1-c1cccc(F)c1
< 100 | < 100 | 100 to 1000 |  | C[C@H](Nc1ccnc2scnc12)c1cc2cccc(C(F)(F)F)c2c(=O)n1-c1ccccc1
< 100 | < 100 |  |  | C[C@H](Nc1ncnc2cccnc12)c1cc2c(F)cccc2c(=O)n1-c1ccccc1
< 100 | < 100 |  |  | C[C@H](Nc1nc(N)nc2scnc12)c1cc2cccc(C(F)(F)F)c2c(=O)n1-c1ccccc1
< 100 | 100 to 1000 | > 10000 |  | Cc1cc(-c2cccc3cc([C@H](C)Nc4ncnc5cccnc45)n(-c4ccccc4)c(=O)c23)cnc1C
< 100 | < 100 |  |  | C[C@H](Nc1ccnc2ccnn12)c1cc2cccc(Cl)c2c(=O)n1-c1cccc(F)c1
< 100 | < 100 |  |  | Cc1cccc2cc([C@H](C)Nc3ncnc4cccnc34)n(-c3cccc(F)c3)c(=O)c12

IC50 (PIK3CD (Human)) [nM] | IC50 (PIK3CG (human)) [nM] | IC50 (PIK3CB (Human)) [nM] | IC50 (PIK3CA (human)) [nM] | SMILES
< 100 | < 100 |  |  | C[C@H](Nc1ncnn2ccnc12)c1cc2cccc(Cl)c2c(=O)n1-c1cccc(F)c1
< 100 | < 100 |  |  | C[C@H](Nc1ccnc2cccnc12)c1cc2cccc(Cl)c2c(=O)n1-c1cccc(F)c1
< 100 | < 100 | 100 to 1000 |  | C[C@H](Nc1ncnc2scnc12)c1cc2scc(C(F)(F)F)c2c(=O)n1-c1ccccc1
< 100 | < 100 |  |  | C[C@H](Nc1ncnc2cccnc12)c1cc2cccc(C(F)(F)F)c2c(=O)n1-c1cccc(F)c1
< 100 | < 100 | 100 to 1000 |  | C[C@H](Nc1ncnc2cccnc12)c1cc2cccc(Cl)c2c(=O)n1-c1ccccc1
< 100 | < 100 | 100 to 1000 |  | C[C@H](Nc1ncnc2[nH]cnc12)c1cc2cccc(C(F)(F)F)c2c(=O)n1-c1ccccc1
< 100 | < 100 |  |  | C[C@H](Nc1ncnc2cccnc12)c1cc2cccc(-c3cnn(C)c3)c2c(=O)n1C1CC1
< 100 | < 100 | > 10000 |  | Cc1ncc(-c2cccc3cc([C@H](C)Nc4nc(N)nc5cccnc45)n(-c4cccc(F)c4)c(=O)c23)cn1
< 100 | < 100 | 100 to 1000 |  | C[C@H](Nc1ncnc2ccnn12)c1cc2cccc(Cl)c2c(=O)n1-c1ccccc1
< 100 | < 100 | 100 to 1000 |  | C[C@H](Nc1ncnn2ccnc12)c1cc2cccc(Cl)c2c(=O)n1-c1ccccc1
< 100 | < 100 | 100 to 1000 |  | C[C@H](Nc1nc(N)nc2cccnc12)c1cc2cccc(C(F)(F)F)c2c(=O)n1-c1ccccc1
< 100 | < 100 |  |  | C[C@H](Nc1ccnn2ccnc12)c1cc2cccc(C(F)(F)F)c2c(=O)n1-c1cccc(F)c1
< 100 | 100 to 1000 | 100 to 1000 |  | C[C@H](Nc1ccnn2ccnc12)c1cc2cccc(Cl)c2c(=O)n1C1CC1
< 100 | < 100 | 100 to 1000 |  | C[C@H](Nc1nc(N)ncc1C#N)c1cc2cccc(C(F)(F)F)c2c(=O)n1-c1cccc(F)c1
< 100 | < 100 | 100 to 1000 |  | C[C@H](Nc1ccnn2ccnc12)c1cc2cccc(Cl)c2c(=O)n1-c1cccc(F)c1
< 100 | < 100 | > 10000 |  | COc1ccc(-c2cccc3cc([C@H](C)Nc4ncnc5cccnc45)n(-c4ccccc4)c(=O)c23)cn1
< 100 | < 100 | 100 to 1000 |  | C[C@H](Nc1ccnc2ccnn12)c1cc2cccc(Cl)c2c(=O)n1-c1ccccc1
